This is an account of results in patent publication US11440932B2, “Surfactant compounds-clips for extraction and stabilization in solution of membrane proteins” (CENTRE NATIONAL DE LA RECHERCHE SCIENTIFIQUE, priority 2017, dated 2022).

The nature of data set [1]: Critical micelle concentration (CMC) by DPH fluorescence. The data set is classed as physicochemical. As to conditions: for CMC: 50 mM tris-HCl, pH 8.0.
In the next data set the target is T1, BmrA (Bacillus subtilis, UniProt O06967).
T1 construct: His tag; made in house; host or cells: E. coli C41(DE3)
T1 sequence (O06967 whole entry): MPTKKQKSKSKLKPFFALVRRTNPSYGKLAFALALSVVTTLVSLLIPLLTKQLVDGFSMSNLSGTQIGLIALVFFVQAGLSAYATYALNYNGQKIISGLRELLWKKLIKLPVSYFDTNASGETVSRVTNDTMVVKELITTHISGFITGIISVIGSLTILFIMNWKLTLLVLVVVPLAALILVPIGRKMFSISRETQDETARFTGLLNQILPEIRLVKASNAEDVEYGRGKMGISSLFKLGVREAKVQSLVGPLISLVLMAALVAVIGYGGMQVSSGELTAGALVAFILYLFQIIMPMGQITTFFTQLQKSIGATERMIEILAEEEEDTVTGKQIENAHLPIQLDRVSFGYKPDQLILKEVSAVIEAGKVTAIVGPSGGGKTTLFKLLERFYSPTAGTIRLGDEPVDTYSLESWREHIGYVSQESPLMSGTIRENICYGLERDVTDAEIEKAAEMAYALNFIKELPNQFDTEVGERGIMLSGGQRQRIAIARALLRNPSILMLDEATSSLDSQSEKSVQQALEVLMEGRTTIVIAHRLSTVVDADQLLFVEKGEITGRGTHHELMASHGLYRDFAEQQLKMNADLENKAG
Description: Extraction of BmrA from membranes (SDS-PAGE of supernatant). Also on record: species or system bacterial; overexpressed in E. coli C41DE3. The following applies: detergent 10 g/l unless indicated otherwise; 2 h at 4° C. In short, it runs like this:
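E. coli C41(DE3) membranes overexpressing BmrA (~25% of protein) or AcrB (~20%), at 2 g/l protein in 20 mM Tris-HCl pH 8.0, 100 mM NaCl, 15% glycerol with protease inhibitors, treated with detergent at 10 g/l unless stated otherwise for 2 h at 4° C. After 100 000×g centrifugation, 20 μg supernatant protein run on 10% SDS-PAGE, Coomassie-stained.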

For the compound `CCCCCCCCCCCC(=O)N[C@@H](COCc1cn(CCO[C@@H]2OC(CO)[C@@H](O)C(O)C2O)nn1)C(=O)N[C@H](CCC(=O)O)C(=O)O` (stereo partly shown) [Compound 3.7b], the “CMC” value in data set [1] turned out to be 1.5 mM. Moreover, the “extraction of BmrA” value at BmrA is listed as “non-extracting”.

Turning to `CCCCCCCCCCCCCC(=O)N[C@@H](COCc1cn(CCO[C@@H]2OC(CO)[C@@H](O)C(O)C2O)nn1)C(=O)N[C@H](CCC(=O)O)C(=O)O` (stereo partly shown) [Compound 3.7c], the “CMC” value in data set [1] stood at 1 mM. On BmrA, the “extraction of BmrA” value was “extracting”.

Take `CCCCCCCCCCCCCC(=O)N[C@@H](COCc1cn(CCO[C@@H]2OC(CO)[C@@H](O[C@H]3OC(CO)[C@@H](O)C(O)C3O)C(O)C2O)nn1)C(=O)N[C@H](CCC(=O)O)C(=O)O` (stereo partly shown) [Compound 3.7e]: in data set [1], the “CMC” value turned out to be 2 mM. Besides, the “CMC (breakage in the slope of DPH fluorescence, FIG. 4)” value in data set [1] (triplicates) was 2 mM. Further, the “extraction of BmrA” value on BmrA is given as “non-extracting”.

On to `CCCCCCCCCCCCCC(=O)N[C@@H](COCc1cn(CCOCCOCCOCCOCCOCCOC)nn1)C(=O)N[C@H](CCC(=O)O)C(=O)O` [Compound 3.7g], for which the “CMC” value in data set [1] was found to be 1 mM. For the same compound, the “extraction of BmrA” value on BmrA was “extracting”.

On to `CCCCCCCCCCCCC(CCCCCCCCCCCC)C(=O)N[C@@H](COCc1cn(CCO[C@@H]2OC(CO)[C@@H](O)C(O)C2O)nn1)C(=O)N[C@H](CCC(=O)O)C(=O)O` (stereo partly shown) [Compound 3.7j], for which the “CMC” value in data set [1] worked out at 0.02 mM. The “extraction of BmrA” value on BmrA is on record as “partially extracting”.

Take `CCCCCCCCCCCCCC(=O)N[C@@H](COCc1cn(CCO[C@@H]2OC(CO)[C@@H](O)C(O)C2O)nn1)C(=O)N[C@@H](CCC(=O)O)C(=O)NCC(=O)O` (stereo partly shown) [Compound 3.7l]: the “CMC” value in data set [1] is reported as 1 mM. On BmrA, the “extraction of BmrA” value is “extracting”.
